Results as given in patent US11052100B2, “Stable nicotinamide riboside composition and preparation method thereof” (BONTAC BIO-ENGINEERING (SHENZHEN) CO., LTD, priority 2018, dated 2021).

Assay: Stability accelerated test (purity of nicotinamide riboside by HPLC)
Format: physicochemical
Settings: 25° C.±2° C., relative humidity 60% ±10%, average of 3 samples
Method: The stability accelerated test was carried out on test subjects (nicotinamide riboside and the nicotinamide riboside composition prepared in Embodiment 1 to Embodiment 4 of the present invention) in accordance with the provisions of the Guidelines for Drug Stability Test in the Chinese Pharmacopoeia 2015. The test method was: taking 3 samples from each test subject in an environment with a temperature of 25° C.±2° C. and a relative humidity of 60% ±10%, taking samples once at the end of the 0th month, 1st month, 2nd month, 3rd month, and 6th month during the test period, detecting the purity of nicotinamide riboside by HPLC, and calculating an average value of 3 parts. In the table, 1, 2, 3 and 4 in the first column represent Embodiment 1, Embodiment 2, Embodiment 3 and Embodiment 4, respectively, NR represents nicotinamide riboside, KGM represents konjac glucomannan, and RA represents rebaudioside A.

purity of nicotinamide riboside by HPLC, 0th month (end of 0th month): 99.6% | purity of nicotinamide riboside by HPLC, 1st month (end of 1st month): 10.6% | purity of nicotinamide riboside by HPLC, 2nd month (end of 2nd month): 5.1% | purity of nicotinamide riboside by HPLC, 3rd month (end of 3rd month): 3.4% | purity of nicotinamide riboside by HPLC, 6th month (end of 6th month): 3.2%
Structure (SMILES): NC(=O)c1ccc[n+]([C@@H]2O[C@H](CO)[C@@H](O)[C@H]2O)c1 [NR, Nicotinamide riboside]
